# Assay results as given in the supplement of paper PMC10733146.
# Key:
# Assay in all cases: viability relative to DMSO control (fraction); higher = less drug effect (more viable cells)
# Settings in all cases: 48 h
# [1] = system: primary AML patient cells (S091)
# How it was run: (§1)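 Compounds were pre-plated at five concentrations, one well each, in 384-well plates, and primary mononuclear tumour cells were plated on them at 4 × 10^4 cells per well. The cells, fresh or cryopreserved, had been Ficoll-isolated from blood or bone marrow or taken from processed lymph node. After 48 h at 37 °C and 5% CO2 in RPMI-1640 with penicillin/streptomycin, L-glutamine and human serum, viability was read as CellTiter-Glo luminescence relative to the median of 16 inner DMSO wells.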
# [2] = system: primary AML patient cells (S019)
# How it was run: as §1
# [3] = system: primary FL patient cells (S087)
# How it was run: as §1
# [4] = system: primary AML patient cells (S072)
# How it was run: as §1
# [5] = system: primary B-PLL patient cells (S016)
# How it was run: as §1
# [6] = system: primary AML patient cells (S089)
# How it was run: as §1
# [7] = system: primary AML patient cells (S002)
# How it was run: as §1
# [8] = system: primary FL patient cells (S022)
# How it was run: as §1
# [9] = system: primary AML patient cells (S009)
# How it was run: as §1
# [10] = system: primary AML patient cells (S017)
# How it was run: as §1
# [11] = system: primary AML patient cells (S071)
# How it was run: as §1
# [12] = system: primary AML patient cells (S079)
# How it was run: as §1
# [13] = system: primary AML patient cells (S055)
# How it was run: as §1
# [14] = system: primary MCL patient cells (S053)
# How it was run: as §1
# [15] = system: primary ALL patient cells (S048)
# How it was run: as §1
# [16] = system: primary DLBCL patient cells (S082)
# How it was run: as §1
# [17] = system: primary ALL patient cells (S088)
# How it was run: as §1
# [18] = system: primary AML patient cells (S060)
# How it was run: as §1
# [19] = system: primary AML patient cells (S021)
# How it was run: as §1
compound,measurement,setting,value
CC(C)c1cc(C(=O)N2Cc3ccc(CN4CCN(C)CC4)cc3C2)c(O)cc1O [Onalespib],viability,[1]; 0.0032 µM,1.14
same,viability,[1]; 0.016 µM,0.967
same,viability,[1]; 0.08 µM,0.733
same,viability,[1]; 0.4 µM,0.304
same,viability,[1]; 2 µM,0.234
same,viability,[2]; 0.0032 µM,0.594
same,viability,[2]; 0.016 µM,1.1
same,viability,[2]; 0.08 µM,0.265
same,viability,[2]; 0.4 µM,0.57
same,viability,[2]; 2 µM,0.371
same,viability,[3]; 0.0032 µM,0.962
same,viability,[3]; 0.016 µM,1.02
same,viability,[3]; 0.08 µM,0.853
same,viability,[3]; 0.4 µM,0.84
same,viability,[3]; 2 µM,0.871
same,viability,[4]; 0.0032 µM,0.919
same,viability,[4]; 0.016 µM,1.02
same,viability,[4]; 0.08 µM,0.486
same,viability,[4]; 0.4 µM,0.422
same,viability,[4]; 2 µM,0.38
same,viability,[5]; 0.0032 µM,0.875
same,viability,[5]; 0.016 µM,1.35
same,viability,[5]; 0.08 µM,0.668
same,viability,[5]; 0.4 µM,0.69
same,viability,[5]; 2 µM,0.629
same,viability,[6]; 0.0032 µM,1.17
same,viability,[6]; 0.016 µM,0.872
same,viability,[6]; 0.08 µM,0.234
same,viability,[6]; 0.4 µM,0.235
same,viability,[6]; 2 µM,0.173
same,viability,[7]; 0.0032 µM,0.837
same,viability,[7]; 0.016 µM,0.691
same,viability,[7]; 0.08 µM,0.333
same,viability,[7]; 0.4 µM,0.292
same,viability,[7]; 2 µM,0.302
same,viability,[8]; 0.0032 µM,0.868
same,viability,[8]; 0.016 µM,0.943
same,viability,[8]; 0.08 µM,0.705
same,viability,[8]; 0.4 µM,0.781
same,viability,[8]; 2 µM,0.757
same,viability,[9]; 0.0032 µM,1.15
same,viability,[9]; 0.016 µM,0.852
same,viability,[9]; 0.08 µM,0.686
same,viability,[9]; 0.4 µM,0.568
same,viability,[9]; 2 µM,0.648
same,viability,[10]; 0.0032 µM,0.93
same,viability,[10]; 0.016 µM,1.11
same,viability,[10]; 0.08 µM,0.675
same,viability,[10]; 0.4 µM,0.33
same,viability,[10]; 2 µM,0.281
same,viability,[11]; 0.0032 µM,0.847
same,viability,[11]; 0.016 µM,0.379
same,viability,[11]; 0.08 µM,0.149
same,viability,[11]; 0.4 µM,0.169
same,viability,[11]; 2 µM,0.168
same,viability,[12]; 0.0032 µM,0.872
same,viability,[12]; 0.016 µM,0.888
same,viability,[12]; 0.08 µM,0.555
same,viability,[12]; 0.4 µM,0.381
same,viability,[12]; 2 µM,0.322
same,viability,[13]; 0.0032 µM,0.96
same,viability,[13]; 0.016 µM,1.01
same,viability,[13]; 0.08 µM,0.566
same,viability,[13]; 0.4 µM,0.434
same,viability,[13]; 2 µM,0.389
same,viability,[14]; 0.0032 µM,0.837
same,viability,[14]; 0.016 µM,1.12
same,viability,[14]; 0.08 µM,0.356
same,viability,[14]; 0.4 µM,0.345
same,viability,[14]; 2 µM,0.306
same,viability,[15]; 0.0032 µM,0.877
same,viability,[15]; 0.016 µM,0.847
same,viability,[15]; 0.08 µM,0.477
same,viability,[15]; 0.4 µM,0.574
same,viability,[15]; 2 µM,0.432
same,viability,[16]; 0.0032 µM,0.967
same,viability,[16]; 0.016 µM,1.24
same,viability,[16]; 0.08 µM,1.03
same,viability,[16]; 0.4 µM,1.22
same,viability,[16]; 2 µM,0.961
same,viability,[17]; 0.0032 µM,0.659
same,viability,[17]; 0.016 µM,0.582
same,viability,[17]; 0.08 µM,0.255
same,viability,[17]; 0.4 µM,0.273
same,viability,[17]; 2 µM,0.253
same,viability,[18]; 0.0032 µM,0.967
same,viability,[18]; 0.016 µM,1.15
same,viability,[18]; 0.08 µM,0.61
same,viability,[18]; 0.4 µM,0.169
same,viability,[18]; 2 µM,0.109
same,viability,[19]; 0.0032 µM,0.874
same,viability,[19]; 0.016 µM,0.716
same,viability,[19]; 0.08 µM,0.466
same,viability,[19]; 0.4 µM,0.523
same,viability,[19]; 2 µM,0.58
